Earlier results in patent US20060211662A1, “Combination therapy for topical application in the treatment of age-related macular degeneration and ocular hypertension” (priority 2005, published 2006).

Experiments:
[1] = for anabolic activity relative to standards: relative to standards (typically testosterone)
[2] = for androgenic (virilizing) activity relative to standards: relative to standards (typically testosterone)

Structure (SMILES) | anabolic activity relative to standards [1] | androgenic (virilizing) activity relative to standards [2] | anabolic activity as percent of methyltestosterone ([1]; relative to methyltestosterone) [%] | androgenic activity as percent of methyltestosterone ([2]; relative to methyltestosterone) [%]
CCC(=O)O[C@H]1CC[C@H]2[C@@H]3CCC4=CC(=O)CC[C@@H]4[C@H]3CC[C@]12C [19-nortestosterone propionate] | unchanged | decreased |  | 
C[C@]12CCC(=O)C[C@@H]1CC[C@@H]1[C@@H]2CC[C@]2(C)[C@@H](O)CC[C@@H]12 [dihydrotestosterone] | enhanced | unchanged |  | 
C[C@]1(O)CC[C@H]2[C@@H]3CCC4=CC(=O)CC[C@]4(C)[C@@]3(F)[C@@H](O)C[C@@]21C [fluoxymesterone] | even larger increase | augmented |  | 
C[C@]12COC(=O)C[C@@H]1CC[C@@H]1[C@@H]2CC[C@@]2(C)[C@H]1CC[C@]2(C)O [oxandrolone, 17 alpha-methyl-17β-hydroxy-2-oxa-5 alpha-androstan-3-one] | increased | decreased | 322 | 24
C[C@]12C/C(=C/O)C(=O)C[C@@H]1CC[C@@H]1[C@@H]2CC[C@@]2(C)[C@H]1CC[C@]2(C)O [oxymetholone] | enhanced | unchanged |  | 
C[C@]12Cc3c[nH]nc3C[C@@H]1CC[C@@H]1[C@@H]2CC[C@@]2(C)[C@H]1CC[C@]2(C)O [stanozolol] | increased | decreased |  | 
